Source: article PMC6271338, “Synthesis and Cytotoxic Evaluation of Alkoxylated Chalcones” (Molecules, 2014)
Values joined by “and” are separate entries in the source; they are usually repeats but may differ in a detail not shown here. Equal entries are not always repeated.

What was measured:
HepG2 cells = assay: In vitro anti-proliferative SRB assay, HepG2; type: cell-based, human; details: for IC50: Homo sapiens, HepG2, increasing concentrations up to 30 μM, mean ± SD of at least three independent experiments; for SI (CC50 HMLE/IC50 HepG2) / SI (CC50 L02/IC50 HepG2): selectivity index; for SI (CC50 HMLE/IC50 HepG2): HMLE vs HepG2; for SI (CC50 L02/IC50 HepG2): L02 vs HepG2
HeLa cells = assay: In vitro anti-proliferative SRB assay, HeLa; type: cell-based, human; details: for IC50: Homo sapiens, HeLa, increasing concentrations up to 30 μM, mean ± SD of at least three independent experiments; for SI (CC50 HMLE/IC50 Hela) / SI (CC50 L02/IC50 Hela): selectivity index; for SI (CC50 HMLE/IC50 Hela): HMLE vs HeLa; for SI (CC50 L02/IC50 Hela): L02 vs HeLa
MCF-7 cells = assay: In vitro anti-proliferative SRB assay, MCF-7; type: cell-based, human; details: for IC50: Homo sapiens, MCF7, increasing concentrations up to 30 μM, mean ± SD of at least three independent experiments; for SI (CC50 HMLE/IC50 MCF7) / SI (CC50 L02/IC50 MCF7): selectivity index; for SI (CC50 HMLE/IC50 MCF7): HMLE vs MCF7; for SI (CC50 L02/IC50 MCF7): L02 vs MCF7
A549 cells = assay: In vitro anti-proliferative SRB assay, A549; type: cell-based, human; details: for IC50: Homo sapiens, A549, increasing concentrations up to 30 μM, mean ± SD of at least three independent experiments; for SI (CC50 HMLE/IC50 A549) / SI (CC50 L02/IC50 A549): selectivity index; for SI (CC50 HMLE/IC50 A549): HMLE vs A549; for SI (CC50 L02/IC50 A549): L02 vs A549
SW1990 cells = assay: In vitro anti-proliferative SRB assay, SW1990; type: cell-based, human; details: for IC50: Homo sapiens, SW1990, increasing concentrations up to 30 μM, mean ± SD of at least three independent experiments; for SI (CC50 HMLE/IC50 SW1990) / SI (CC50 L02/IC50 SW1990): selectivity index; for SI (CC50 HMLE/IC50 SW1990): HMLE vs SW1990; for SI (CC50 L02/IC50 SW1990): L02 vs SW1990
[1] = Cytotoxicity (SRB) against non-tumoral HMLE cells; type: cell-based, human; details: human, HMLE cells (non-tumoral human mammary epithelial cells); increasing concentrations up to 100 μM; mean ± SD of at least three independent experiments; read-out: Normal Human Cell Lines, CC50, HMLE
[2] = Cytotoxicity (SRB) against non-tumoral L02 cells; type: cell-based, human; details: human, L02 cells (non-tumoral human liver cell line); increasing concentrations up to 100 μM; mean ± SD of at least three independent experiments; read-out: Normal Human Cell Lines, CC50, L02
[3] = system: L02 (a human liver cell line); assay: Cytotoxicity (SRB) against non-tumoral L02 cells; type: cell-based; details: L02 versus the five tumoral cell lines
[4] = system: human mammary epithelial cell (HMLE); assay: Cytotoxicity (SRB) against non-tumoral HMLE cells; type: cell-based; details: HMLE versus the five tumoral cell lines
[5] = system: five human cancer cell lines (HepG2, HeLa, MCF-7, A549 and SW1990); assay: In vitro anti-proliferative SRB assay, summary statements over the five-line panel; type: cell-based; details: most of their in vitro IC50 values against the five human cancer lines
Procedure: With a aim of identifying potential anticancer agents with enhanced levels of activity, as well as verifying the conclusions provided above, we took a14 as a starting compound, and then designed and synthesized a series of chalcones b1–42 bearing methoxy groups at the 2' and 6'-positions of the B-ring, whilst varying the substituents on the A-ring. The cytotoxicities of the resulting chalcones were evaluated in vitro against five human cancer cell lines and other two non-tumoral cell lines, including HepG2, HeLa, MCF-7, A549, SW1990, HMLE and L02, and the results are shown in Table 2.
HepG2 and MCF7 cells were grown in the Eagle’s minimum essential medium with Earle’s balanced salts (MEM-EBSS) medium, HeLa, A549 and L02 cells were grown in Dulbecco’s Modified Eagle Media (DMEM), SW1990 cells were grown in RPMI-1640 medium, and HMLE cell were grown in DMEM/F-12 medium. The media were supplemented with 100 U/mL penicillin, […] streptomycin and 10% fetal bovine serum (FBS), and incubated at 37 °C in a humidified atmosphere containing 5% CO2.
Cells were seeded into 96-well plates (4000 cells/well) and incubated at 37 °C in a humidified 5% CO2 atmosphere. After 24 h, the cells were treated with different concentrations of the compounds for 48 h in triplicate to generate dose-response curves. Cell viability was evaluated using the sulforhodamine B (SRB) assay as previous described. […] Etoposide was used as the positive control.

IC50 (HepG2 cells) [µM]	IC50 (HeLa cells) [µM]	IC50 (MCF-7 cells) [µM]	IC50 (A549 cells) [µM]	IC50 (SW1990 cells) [µM]	melting point [°C]	IC50 [5] [µM]	Compound	SI (CC50 HMLE/IC50 HepG2) (HepG2 cells)	SI (CC50 L02/IC50 HepG2) (HepG2 cells)	SI (CC50 HMLE/IC50 Hela) (HeLa cells)	SI (CC50 L02/IC50 Hela) (HeLa cells)	SI (CC50 HMLE/IC50 MCF7) (MCF-7 cells)	SI (CC50 L02/IC50 MCF7) (MCF-7 cells)	SI (CC50 HMLE/IC50 A549) (A549 cells)	SI (CC50 L02/IC50 A549) (A549 cells)	SI (CC50 HMLE/IC50 SW1990) (SW1990 cells)	SI (CC50 L02/IC50 SW1990) (SW1990 cells)	CC50 at 48 h [1] [µM]	CC50 at 48 h [2] [µM]	SI between the CC50 in HMLE and IC50 in tumoral cells [4]	also measured
13.5	16.6	22	16.1	21.4	116.5 to 117.2		COc1cccc(OC)c1/C=C/C(=O)c1cccc(Cl)c1 [b34, (E)-1-(3-Chlorophenyl)-3-(2,6-dimethoxyphenyl)prop-2-en-1-one]	0.7	3.5	0.6	2.8	0.4	2.1	0.6	2.9	0.4	2.2	9.42 ± 1.21	46.9 ± 13.9		SI between the CC50 in L02 and IC50 in tumoral cells [3]: more than 2 fold
0.97 ± 0.04	1.83 ± 0.08	1.79 ± 0.2	1.5 ± 0.07	3.03 ± 0.05	128.7 to 131.2	< 10	COc1cc(C(=O)/C=C/c2c(OC)cccc2OC)ccc1O [b29, (E)-1-(4-Hydroxy-3-methoxyphenyl)-3-(2,6-dimethoxyphenyl)prop-2-en-1-one]	6.5	>103.1	3.4	>54.6	3.5	>55.9	4.2	>66.7	2.1	>33.0	6.31 ± 0.13	> 100	2–7 fold and 2.1–6.5 fold	fold more potent than etoposide (A549 cells; A549 cells, ratio of IC50 values versus etoposide): 11.5 fold
2.76 ± 0.04	3.62 ± 0.07	4.15 ± 0.2	3.63 ± 0.13	7.43 ± 0.56	94.6 to 97.9	< 10	COc1cccc(OC)c1/C=C/C(=O)c1ccccc1OCc1ccccc1 [b11, (E)-1-(2-(Benzyloxy>)phenyl)-3-(2,6-dimethoxyphenyl)prop-2-en-1-one]	7.6	13.9	5.8	10.6	5.1	9.2	5.8	10.5	2.8	5.2	21 ± 1.26	38.3 ± 5.63	2–7 fold	

The remaining lines, values behind:

Compound	IC50 (HepG2 cells) [µM]	IC50 (HeLa cells) [µM]	IC50 (MCF-7 cells) [µM]	IC50 (A549 cells) [µM]	IC50 (SW1990 cells) [µM]	melting point [°C]	IC50 [5] [µM]	SI (CC50 HMLE/IC50 HepG2) (HepG2 cells)	SI (CC50 L02/IC50 HepG2) (HepG2 cells)	SI (CC50 HMLE/IC50 Hela) (HeLa cells)	SI (CC50 L02/IC50 Hela) (HeLa cells)	SI (CC50 HMLE/IC50 MCF7) (MCF-7 cells)	SI (CC50 L02/IC50 MCF7) (MCF-7 cells)	SI (CC50 HMLE/IC50 A549) (A549 cells)	SI (CC50 L02/IC50 A549) (A549 cells)	SI (CC50 HMLE/IC50 SW1990) (SW1990 cells)	SI (CC50 L02/IC50 SW1990) (SW1990 cells)	CC50 at 48 h [1] [µM]	CC50 at 48 h [2] [µM]	SI between the CC50 in HMLE and IC50 in tumoral cells [4]	also measured
CCOc1ccccc1C(=O)/C=C/c1c(OC)cccc1OC [b8, (E)-1-(2-Ethoxyphenyl)-3-(2,6-dimethoxyphenyl)prop-2-en-1-one]	4.23 ± 0.09	8.72 ± 0.07	8.56 ± 0.17	7.36 ± 0.37	8.2 ± 0.12	48.8 to 50.4	< 10	0.2	9.3	0.1	4.5	0.1	4.6	0.1	5.4	0.1	4.8	0.83 ± 0.21	39.6 ± 7.53		SI between the CC50 in L02 and IC50 in tumoral cells [3]: more than 2 fold
COc1cccc(OC)c1/C=C/C(=O)c1ccccc1F [b31, (E)-1-(2-Fluorophenyl)-3-(2,6-dimethoxyphenyl)prop-2-en-1-one]	18 ± 0.88	23.3 ± 0.42	23.5 ± 0.98	27.4 ± 0.67	> 30	66.6 to 68.1		>5.6	>5.6	>4.3	>4.3	>4.3	>4.3	>3.6	>3.6			> 100	> 100	2–7 fold	
